Assay results: US8163909B2, “Substituted hydroxyethyl amine compounds as beta-secretase modulators and methods of use” (Amgen Inc., priority 2007, dated 2012)
Like-named read-outs stand apart in the source and are kept apart here.

Assays:
[1] = target: CYP2D6 (Homo sapiens, UniProt P10635); experiment: CYP2D6 inhibition assay (bufuralol, pooled human liver microsomes)
[2] = Microsomal stability assay, rat liver microsomes;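 also: rat liver microsomes (0.25 mg/mL) with about 1 µM compound plus 1 mM NADPH, pH 7.4, 37 °C for 30 min, parent left measured by LC-MS/MS against 0 min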
[3] = tested on: Aβ40 in conditioned medium of cells stably expressing Amyloid Precursor Protein (APP); experiment: In vitro BACE cell-based assay (Aβ40 in conditioned medium, sandwich ELISA); settings: Homo sapiens;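 also: compounds added as a dilution series, secreted peptide quantified by europium time-resolved fluorescence readout, potency fitted from percent of control versus compound concentration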
[4] = Microsomal stability assay, human liver microsomes;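 also: pooled human liver microsomes at 0.25 mg/mL with 1 µM compound and NADPH at 37 °C, pH 7.4, for 30 min, unchanged parent quantified by LC-MS/MS against the 0 min sample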
[5] = target: CYP3A4 (CYP3A) (Homo sapiens, UniProt P08684); experiment: in vitro; settings: microsomes, pH 7.4;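 also: inhibition of CYP3A-mediated 1-hydroxymidazolam formation after 10 min incubation with NADPH, quantified by HPLC MS relative to metabolite produced without test compound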
Chain of CYP3A4 (CYP3A) (P08684 2-503): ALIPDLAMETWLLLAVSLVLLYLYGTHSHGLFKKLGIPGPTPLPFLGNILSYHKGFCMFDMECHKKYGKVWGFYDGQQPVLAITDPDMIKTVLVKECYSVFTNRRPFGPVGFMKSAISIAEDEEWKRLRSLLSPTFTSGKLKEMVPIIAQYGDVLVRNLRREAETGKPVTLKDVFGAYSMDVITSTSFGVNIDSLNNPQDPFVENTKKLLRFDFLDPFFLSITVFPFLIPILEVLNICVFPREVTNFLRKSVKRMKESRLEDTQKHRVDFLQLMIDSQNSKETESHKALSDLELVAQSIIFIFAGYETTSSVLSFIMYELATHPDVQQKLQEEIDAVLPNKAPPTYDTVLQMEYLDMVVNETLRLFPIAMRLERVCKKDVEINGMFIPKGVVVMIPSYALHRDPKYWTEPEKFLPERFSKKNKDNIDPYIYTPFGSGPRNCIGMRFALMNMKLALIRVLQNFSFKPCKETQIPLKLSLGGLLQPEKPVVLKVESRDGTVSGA

[6] = tested on: Abeta peptide; experiment: In vivo inhibition of beta-secretase (reduction of Abeta peptide in brain and cerebrospinal fluid); set-up: species or system rat; settings: Rattus norvegicus, po, 4 h, orally administered at 30 mg/kg dose, measured after 4 hours;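 also: abeta peptide quantified by sandwich ELISA with electrochemiluminescence readout in rat brain supernatant or CSF, relative to vehicle-dosed control animals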
[7] = target: Beta Secretase enzyme (BACE) (Homo sapiens, UniProt P56817); experiment: In vitro enzymatic BACE FRET (fluorescence resonance energy transfer) assay; format: biochemical;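 also: fluorescence read after 1 h with 50 nM quenched peptide substrate spanning the BACE cleavage site, in pH 4.2 acetate buffer containing 10% DMSO and nonionic detergent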
Chain of Beta Secretase enzyme (BACE) (P56817 46-501): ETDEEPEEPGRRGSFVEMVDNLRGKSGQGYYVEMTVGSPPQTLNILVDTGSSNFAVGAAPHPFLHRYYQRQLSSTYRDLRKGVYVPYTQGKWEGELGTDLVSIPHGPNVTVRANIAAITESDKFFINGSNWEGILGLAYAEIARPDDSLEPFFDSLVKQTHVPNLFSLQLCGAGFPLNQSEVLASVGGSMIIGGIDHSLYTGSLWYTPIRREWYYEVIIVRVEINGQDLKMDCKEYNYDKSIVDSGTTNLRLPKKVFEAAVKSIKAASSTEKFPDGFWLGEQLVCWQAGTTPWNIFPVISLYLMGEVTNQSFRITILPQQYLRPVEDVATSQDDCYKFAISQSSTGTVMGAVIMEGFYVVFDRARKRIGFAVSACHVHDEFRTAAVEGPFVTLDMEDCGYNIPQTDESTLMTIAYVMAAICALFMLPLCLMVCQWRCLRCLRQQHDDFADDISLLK

[8] = 2D6 IC50 (uM), CYP enzyme inhibition
[9] = HEK293, HEK cells, read-out: HEK cell assay
[10] = rat cerebrospinal fluid, read-out: percent reduction of abeta peptide in the cerebrospinal fluid of the rat
[11] = BACE enzyme assay, read-out: BACE1 FRET assay
[12] = rat brain, read-out: percent reduction of abeta peptide in the brain of the rat
[13] = 2D6 IC50 (uM), CYP2D6 inhibition
[14] = HEK293, HEK cell-based assay IC50, read-out: HEK cell assay
[15] = BACE enzyme assay IC50, read-out: BACE1 FRET assay
[16] = HEK293, HEK cell-based assay, IC50's in uM, read-out: HEK cell assay
[17] = BACE enzyme assay, IC50's in uM, read-out: BACE1 FRET assay
[18] = 2D6 IC50, CYP enzyme inhibition
[19] = HEK293, cell-based assay, HEK cells, IC50's in uM, read-out: HEK cell assay

Chain of CYP2D6 (P10635 whole entry): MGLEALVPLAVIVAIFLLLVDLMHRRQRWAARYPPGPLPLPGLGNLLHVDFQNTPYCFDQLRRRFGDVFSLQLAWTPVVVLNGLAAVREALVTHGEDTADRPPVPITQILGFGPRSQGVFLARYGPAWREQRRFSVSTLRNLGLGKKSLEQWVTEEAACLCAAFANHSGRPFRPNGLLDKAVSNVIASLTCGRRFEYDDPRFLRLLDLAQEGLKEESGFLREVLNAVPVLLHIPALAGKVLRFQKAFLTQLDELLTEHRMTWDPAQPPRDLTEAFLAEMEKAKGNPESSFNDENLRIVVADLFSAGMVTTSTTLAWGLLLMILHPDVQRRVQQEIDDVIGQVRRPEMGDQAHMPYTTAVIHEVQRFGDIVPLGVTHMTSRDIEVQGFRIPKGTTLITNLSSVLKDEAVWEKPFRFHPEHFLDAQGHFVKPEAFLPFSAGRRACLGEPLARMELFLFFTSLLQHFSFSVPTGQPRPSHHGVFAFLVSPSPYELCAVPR

Row | SMILES | IC50 [1, 8] [µM] | RLM ([2]; rat liver microsomal data) [µL/min/mg] | HLM ([4]; human liver microsomal data) [µL/min/mg] | IC50 [5] [nM] | inhibition in vivo at 30 mg/kg [6, 10] [%] | inhibition in vivo at 30 mg/kg [6, 12] [%] | RLM ([2]; rat liver microsomes) [µL/min/mg] | HLM ([4]; human liver microsomes) [µL/min/mg] | IC50 [7, 17] [µM] | other results
1 | CC(C)(C)Cc1cnc2c(c1)[C@@H](NC[C@@H](O)[C@H](Cc1ccc3c(c1)OCO3)NC(=O)[C@H]1CCO1)CC1(CCC1)O2 [Example 516, (2R)-N-((1S,2R)-1-(1,3-benzodioxol-5-ylmethyl)-3-(((4′S)-6′-(2,2-dimethylpropyl)-3′,4′-dihydrospiro[cyclobutane-1,2′-pyrano[2,3-b]pyridin]-4′-yl)amino)-2-hydroxypropyl)-2-oxetanecarboxamide] | 3.3 | 94 | 31 | 100 | 10 to 80 |  |  |  |  | IC50 [3, 9]: 0.02 µM; IC50 [7, 11]: 0.018 µM
2 | COC(OC)C(=O)N[C@@H](Cc1ccc2c(c1)OCO2)[C@H](O)CN[C@H]1CC2(CCC2)Oc2ncc(CC(C)(C)C)cc21 [Example 523, N-((1S,2R)-1-(1,3-benzodioxol-5-ylmethyl)-3-(((4′S)-6′-(2,2-dimethylpropyl)-3′,4′-dihydrospiro[cyclobutane-1,2′-pyrano[2,3-b]pyridin]-4′-yl)amino)-2-hydroxypropyl)-2,2-dimethoxyacetamide] | 5.4 | 94 | 37 | 100 | 10 to 80 | 5 to 80 |  |  |  | IC50 [3, 9]: 0.033 µM; IC50 [7, 11]: 0.019 µM
3 | COCC(=O)N[C@@H](Cc1ccc(F)c(-c2nccs2)c1)[C@H](O)CN[C@H]1CC2(CCC2)Oc2ncc(CC(C)(C)F)cc21 [Example 743] |  |  |  | ≤ 30 | 10 to 80 | ≥ 30 | 31 | 22 |  | IC50 [1, 13]: 0.6 µM; IC50 [3, 14]: 0.037 µM; IC50 [7, 15]: 0.016 µM
4 | COCC(=O)N[C@@H](Cc1cc(F)cc(F)c1)[C@H](O)CN[C@H]1CC2(CCC2)Oc2c(-c3ccncc3)cc(CC(C)(C)C)cc21 [Example 488] | 1.6 | 82 | 31 | 100 | 10 to 80 | 5 to 80 |  |  |  | IC50 [3, 9]: 0.01 µM; IC50 [7, 11]: 0.009 µM
5 | CC(=O)N[C@@H](Cc1ccc(-c2nccs2)cc1)[C@H](O)CN[C@H]1CC2(CCC2)Oc2ncc(CC(C)(C)C)cc21 [Example 677] |  |  |  | 100 | 10 to 80 | 5 to 80 | 52 | 57 |  | IC50 [1, 13]: 1 µM; IC50 [3, 14]: 0.028 µM; IC50 [7, 15]: 0.015 µM
6 | CO[C@H](C)C(=O)N[C@@H](Cc1cccc(-c2nccs2)c1)[C@H](O)CN[C@H]1CC2(CCC2)Oc2ncc(CC(C)(C)F)cc21 [Example 831, (2R)-N-((1S,2R)-3-(((4′S)-6′-(2-fluoro-2-methylpropyl)-3′,4′-dihydrospiro[cyclobutane-1,2′-pyrano[2,3-b]pyridin]-4′-yl)amino)-2-hydroxy-1-(3-(1,3-thiazol-2-yl)benzyl)propyl)-2-methoxypropanamide] | 0.8 | 45 | 21 | 200 | 10 to 80 |  |  |  | 0.024 | IC50 [3, 16]: 0.047 µM
7 | C#Cc1ccc(F)c(C[C@H](NC(=O)[C@@H](C)OC)[C@H](O)CN[C@H]2CC3(CCC3)Oc3ncc(CC(C)(C)C)cc32)c1 [Example 902] |  | 70 | 36 | 100 | 10 to 80 |  |  |  | 0.006 | IC50 [1, 18]: 0.9 µM; IC50 [3, 19]: 0.026 µM
8 | COCC(=O)N[C@@H](Cc1cc(F)cc(-c2nccs2)c1)[C@H](O)CNC1CC2(CCC2)Oc2ncc(CC(C)(F)F)cc21 (stereo partly drawn) [Example 764, N-((1S,2R)-3-((6′-(2,2-difluoropropyl)-3′,4′-dihydrospiro[cyclobutane-1,2′-pyrano[2,3-b]pyridin]-4′-yl)amino)-1-(3-fluoro-5-(1,3-thiazol-2-yl)benzyl)-2-hydroxypropyl)-2-methoxyacetamide] | 0.7 | 33 | 41 | 300 | 10 to 80 |  |  |  | 0.011 | IC50 [3, 16]: 0.018 µM
9 | CO[C@H](C)C(=O)N[C@@H](Cc1cc(F)cc(F)c1)[C@H](O)CN[C@H]1CC2(CCC2)Oc2c1cc(CC(C)C)nc2-c1ccncc1 [Example 687] |  |  |  | ≤ 30 | 10 to 80 |  | 91 | 27 |  | IC50 [1, 13]: 0.2 µM; IC50 [3, 14]: 0.016 µM; IC50 [7, 15]: 0.008 µM
10 | C#Cc1cccc(C[C@H](NC(=O)[C@@H](C)OC)[C@H](O)CN[C@H]2CC3(CCC3)Oc3ncc(CC(C)(C)C)cc32)c1 [Example 849, (2R)-N-((1S,2R)-3-(((4′S)-6′-(2,2-dimethylpropyl)-3′,4′-dihydrospiro[cyclobutane-1,2′-pyrano[2,3-b]pyridin]-4′-yl)amino)-1-(3-ethynylbenzyl)-2-hydroxypropyl)-2-methoxypropanamide] |  | 43 | 18 | 50 | ≥ 50 |  |  |  | 0.005 | IC50 [1, 18]: 3.2 µM; IC50 [3, 19]: 0.008 µM
11 | COCC(=O)N[C@@H](Cc1ccc(F)cc1)[C@H](O)CN[C@H]1CC2(CCC2)Oc2c1cc(CC(C)C)cc2-n1ccnc1 [Example 478] |  | 157 | 24 | 100 | 10 to 80 |  |  |  |  | IC50 [1, 18]: 2.2 µM; IC50 ([3]; HEK293, Table 2, HEK cells, read-out: HEK cell assay): 0.068 µM; IC50 ([7]; Table 2, read-out: BACE1 FRET assay): 0.056 µM
12 | C#Cc1cccc(C[C@H](NC(=O)COC)[C@H](O)CN[C@H]2CC3(CCC3)Oc3ncc(CC(C)(F)F)cc32)c1 [Example 829] | 2.3 | 23 | 40 | 200 |  | ≥ 30 |  |  | 0.007 | IC50 [3, 16]: 0.016 µM
13 | COCC(=O)N[C@@H](Cc1ccc(-c2nccs2)c(F)c1)[C@H](O)CN[C@H]1CC2(CCC2)Oc2ncc(CC(C)(C)C)cc21 [Example 730] |  |  |  | ≤ 30 | 10 to 80 |  | 74 | 57 |  | IC50 [1, 13]: 0.7 µM; IC50 [3, 14]: 0.027 µM; IC50 [7, 15]: 0.039 µM
14 | COCC(=O)N[C@@H](Cc1cc(F)cc(F)c1)[C@H](O)CN[C@H]1CC2(CCC2)Oc2c1cc(CC(C)(C)C)nc2-c1ccncc1 [Example 528] | 1.3 | 72 | 19 | 100 | 10 to 80 |  |  |  |  | IC50 [3, 9]: 0.023 µM; IC50 [7, 11]: 0.01 µM
15 | COCC(=O)N[C@@H](Cc1cccc(F)c1)[C@H](O)CN[C@H]1CC2(CCC2)Oc2c1cc(CC(C)(C)C)nc2-n1ccnc1 [Example 504] | 2.3 | 87 | 16 | 100 | 10 to 80 |  |  |  |  | IC50 [3, 9]: 0.028 µM; IC50 [7, 11]: 0.014 µM
16 | COC(OC)C(=O)N[C@@H](Cc1cccc(-c2nccs2)c1)[C@H](O)CN[C@H]1CC2(CCC2)Oc2ncc(CC(C)C)cc21 [Example 816, N-((1S,2R)-2-hydroxy-3-(((4′S)-6′-(2-methylpropyl)-3′,4′-dihydrospiro[cyclobutane-1,2′-pyrano[2,3-b]pyridin]-4′-yl)amino)-1-(3-(1,3-thiazol-2-yl)benzyl)propyl)-2,2-dimethoxyacetamide] | 0.7 | 44 | 46 | 300 | 10 to 80 | 5 to 80 |  |  | 0.008 | IC50 [3, 16]: 0.024 µM
17 | COCC(=O)N[C@@H](Cc1ccc(F)cc1)[C@H](O)CN[C@H]1CC(C)(C)Oc2c1cc(CC(C)C)c1c2OCO1 [Example 747] |  |  |  | 200 | 10 to 80 |  | 217 | 125 |  | IC50 [1, 13]: 9.1 µM; IC50 [3, 14]: 0.243 µM; IC50 [7, 15]: 0.209 µM
18 | CO[C@H](C)C(=O)N[C@@H](Cc1ccc2c(c1)OCO2)[C@H](O)CN[C@H]1CC2(CCC2)Oc2ncc([C@@H]3CC3(C)C)cc21 [Example 578] |  |  |  | 100 |  | 5 to 80 | 185 | 36 |  | IC50 ([1]; 2D6 IC50, CYP2D6 inhibition): 2 µM; IC50 ([3]; HEK293, HEK cells, read-out: HEK cell assay (IC50)): 0.019 µM; IC50 ([7]; read-out: BACE1 FRET assay (IC50)): 0.018 µM
